Test results taken from the NIST ThermoML archive (doi:10.1016/j.jct.2012.03.027).

Key:
[1] = Molar enthalpy of transition or fusion; conditions: Crystal; DSC
[2] = for vapor or sublimation pressure: Closed cell (Static) method; for Triple point temperature: DTA
[3] = molar heat capacity at constant pressure; conditions: 298.15 K, 101.33 kPa, Drop calorimetry

OCC(F)(F)C(F)(F)C(F)(F)C(F)(F)C(F)(F)C(F)(F)C(F)(F)C(F)(F)C(F)(F)F [1H,1H-perfluoro-1-decanol]
Conditions | Molar enthalpy of transition or fusion [kJ/mol]
[1] | 15.9

[2], Crystal
Conditions | vapor or sublimation pressure [kPa]
303.92 K | 0.00452
308 K | 0.00755
312.98 K | 0.01315
318.07 K | 0.02289
323.07 K | 0.03765
327.88 K | 0.06457
332.84 K | 0.1045
337.79 K | 0.1714
342.75 K | 0.2677
347.71 K | 0.414
352.65 K | 0.6247
355.65 K | 0.8008
358.15 K | 0.97

Conditions | Triple point temperature [K]
[2], Crystal | 358.5

OCC(F)(F)C(F)(F)C(F)(F)C(F)(F)C(F)(F)C(F)(F)C(F)(F)C(F)(F)F [2,2,3,3,4,4,5,5,6,6,7,7,8,8,9,9,9-heptadecafluoro-1-nonanol]
Conditions | Molar enthalpy of transition or fusion [kJ/mol]
[1] | 16.6

[2]
Conditions | vapor or sublimation pressure [kPa]
275.71 K, Crystal | 0.00048
278.17 K, Crystal | 0.00067
283.16 K, Crystal | 0.00128
288.15 K, Crystal | 0.0025
293.14 K, Crystal | 0.00477
298.11 K, Crystal | 0.00866
303.13 K, Crystal | 0.01568
308.1 K, Crystal | 0.02727
313.09 K, Crystal | 0.04767
318.06 K, Crystal | 0.07933
323.03 K, Crystal | 0.13
342.99 K, Liquid | 0.8017
344 K, Liquid | 0.8571
345.48 K, Liquid | 0.9447
347.97 K, Liquid | 1.11
350.45 K, Liquid | 1.3
351.45 K, Liquid | 1.383

Conditions | Triple point temperature [K]
[2], Crystal | 342.2

OCC(F)(F)C(F)(F)C(F)(F)C(F)(F)C(F)(F)C(F)(F)F [2,2,3,3,4,4,5,5,6,6,7,7,7-tridecafluoro-1-heptanol]
[2], Liquid
Conditions | vapor or sublimation pressure [kPa]
275.55 K | 0.01786
278.02 K | 0.02308
280.53 K | 0.03001
282.99 K | 0.03804
285.49 K | 0.04858
287.97 K | 0.06227
290.46 K | 0.07837
292.95 K | 0.09912
295.45 K | 0.1247
297.97 K | 0.1587
300.43 K | 0.1946
302.94 K | 0.2431
305.4 K | 0.294
307.91 K | 0.3632
310.39 K | 0.4344
312.88 K | 0.5339
315.35 K | 0.6248
317.87 K | 0.7553

Conditions | molar heat capacity at constant pressure [J/K/mol]
[3], Liquid | 476.8

OCC(F)(F)C(F)(F)C(F)(F)C(F)(F)C(F)(F)C(F)(F)C(F)(F)C(F)(F)C(F)(F)C(F)(F)F [1H,1H-perfluoroundecan-1-ol]
Conditions | Molar enthalpy of transition or fusion [kJ/mol]
[1] | 22.4

[2], Crystal
Conditions | vapor or sublimation pressure [kPa]
310.53 K | 0.00219
313.02 K | 0.00299
315.51 K | 0.00402
318 K | 0.00537
320.48 K | 0.00715
323 K | 0.00968
325.47 K | 0.01321
327.95 K | 0.01724
330.42 K | 0.02207
332.87 K | 0.02909
335.42 K | 0.03815
337.85 K | 0.04977
340.35 K | 0.06415
342.81 K | 0.08275
345.3 K | 0.1064
347.8 K | 0.1361

Conditions | Triple point temperature [K]
[2], Crystal | 374

OCC(F)(F)C(F)(F)C(F)(F)C(F)(F)C(F)(F)C(F)(F)C(F)(F)F [2,2,3,3,4,4,5,5,6,6,7,7,8,8,8-pentadecafluoro-1-octanol]
Conditions | Molar enthalpy of transition or fusion [kJ/mol]
[1] | 11.9

[2]
Conditions | vapor or sublimation pressure [kPa]
268.27 K, Crystal | 0.00104
273.24 K, Crystal | 0.00201
278.21 K, Crystal | 0.00388
283.17 K, Crystal | 0.00714
288.15 K, Crystal | 0.01272
293.15 K, Crystal | 0.02273
295.64 K, Crystal | 0.03033
298.14 K, Crystal | 0.03911
300.61 K, Crystal | 0.05177
303.13 K, Crystal | 0.06648
305.62 K, Crystal | 0.08724
308.1 K, Crystal | 0.1113
310.56 K, Crystal | 0.1412
313.08 K, Crystal | 0.1815
315.52 K, Crystal | 0.2288
318.05 K, Crystal | 0.2936
320.52 K, Liquid | 0.3615
323.01 K, Liquid | 0.4351
325.52 K, Liquid | 0.524
328.01 K, Liquid | 0.6236
330.49 K, Liquid | 0.7457
332.97 K, Liquid | 0.871
335.47 K, Liquid | 1.048
337.97 K, Liquid | 1.233
339.44 K, Liquid | 1.359

Crystal
Conditions | Triple point temperature [K] | molar heat capacity at constant pressure [J/K/mol]
[2] | 318.2 | –
[3] | – | 468.6
